# Assay results from patent US10201523B2, “Use of wilforlide A for overcoming chemotherapy resistance” (WESTERN UNIVERSITY OF HEALTH SCIENCES, priority 2013, dated 2019).
# Several values for one entry are separate records, joined by “and”; a condition that tells them apart may be missing. Equal entries are not always repeated.
# Experiments:
# [1] = Pharmacokinetics of wilforlide A in mice (plasma, HPLC-MS/MS); format: in vivo; conditions: CD-1 mice; for Cmax: plasma; for T1/2: terminal elimination
# Description: (§1) The administration routes used in these studies were intravenous (i.v.), oral gavage (p.o.), and intraperitoneal (i.p.) administration. […] More specifically, working concentrations of wilforlide A were prepared by: (i) dissolving wilforlide A inDMSO at a concentration of 3 mg/ml at 80° C. for use with i.p. administration; (ii) dissolving wilforlide A in Capmul™ at a concentration of 3 mg/ml for use with p.o. administration; and (iii) dissolving wilforlide A inDMSO at a concentration of 1.5 mg/ml at 80° C., and then diluted ten times in 40% HBCD (w/v) for use with i.v. administration. […] Thus, the MTD study was started with these doses.
# To determine the pharmacokinetics of wilforlide A in mice, wilforlide A was formulated for i.p., p.o., and i.v. administration as describe above, for doses of 6, 30, and 1.2 mg/kg, respectively. Four CD-1 mice were sacrificed prior to wilforlide A administration and at: (i) 5, 10, 15, 20, 30, and 60 min after i.p. administration; (ii) 2, 5, 10, 15, 20, and 30 min after p.o. administration; and (iii) 1, 2, 3, and 4 hours after i.v. administration. At each time point, blood was drawn via heart puncture and plasma was separated by a five min centrifution at 10000 rpm. Plasma wilforlide A concentrations were measured using a validated HPLC-MS/MS method. The peak drug concentration (Cmax) and time to peak drug concentration (Tmax) were read directly from the plasma concentration time course data, while the terminal elimination half-life (T1/2) was calculated to be 0.693/Ke, where Ke was the terminal phase elimination rate. A-C, respectfully.
# [2] = test system: Bt474-TxR; assay: SRB cell viability assay, lapatinib with/without wilforlide A pretreatment; format: cell-based; conditions: BT474-TxR (lapatinib-resistant); 2.5 or 25 μg/ml pretreatment
# [3] = test system: PC3; assay: SRB cell viability assay, docetaxel with/without wilforlide A pretreatment; conditions: PC3 (docetaxel-sensitive); 0.6, 1.25 or 2.5 μg/ml pretreatment
# Description: Following the 72 hour wilforlide A treatment, a sulforhodamine B (SRB) assay was used to quantitate living cells. To perform the assay, the wilforlide A media was aspirated from each well, and replaced with a 10% solution of cold trichloroacetic acid (TCA) (Cat #: T6399, purchased from Sigma-Aldrich), and incubated for one hour at 4° C. After the TCA incubation, the TCA solution was aspirated, and the cells were washed five times with tap water. After removing the last wash, the plates were left with lids off at room temperature until the surfaces were dry, which took one to two hours. Then 50 μl of a 0.4% solution of sul-forhodamine B (SRB) sodium salt (Cat #: S9012, purchased from Sigma-Aldrich) was added to each well and the plates were incubated at room temperature for 20 to 30 minutes. Afterwards, the wells were washed five times with a 1% acetic acid solution in 10 mM TRIS base (Cat #: 161-0719, purchased from Bio-Rad Laboratories, Hercules, Calif.). The plates were subsequently left to dry for several hours or overnight. SRB that remained in the dried wells was solubilized by adding 100 μl of SRB solubilization solution (10 mM TRIS base) to each well, and placing the plates either on a gently-moving shaker or letting the plates remain stationary at room temperature until the SRB dissolves, which takes about five to ten minutes. The amount of SRB in each well, which correlated directly to the number of living cells at fixation, was determined spectrophotometrically at an absorbance of 565 nm by a microplate reader.
# In these comparisons, the in vitro IC50 of a tested chemotherapeutic drug (D) in cell culture was compared to the drug's IC50 when drug treatment followed pretreatment of the cells with wilforlide A (Purchased from PI & PI Technology Inc. of Guangzhou, China or the National Institutes for Food and Drug Control in Beijing, China).
# Triplicate wells were assigned to each experimental condition tested, and a 24 hour recovery period for the cells following the seeding of the wells was allowed. During the recovery period, the cells were incubated at 37° C. and 5% CO2.
# At the end of the two hour pre-treatment period, 50 μl aliquots of the desired chemotherapeutic drug RPMI medium were added according to the amounts provided in Table 2.
# After adding the various doses of chemotherapeutic drugs, as described above, the cells were incubated for an additional 72 hours under the same temperature and atmospheric conditions used for the pre-treatment step.
# The cells were then incubated for 72 hours at 37° C. and 5% CO2. After the 72 hour incubation, sulforhodamine B (SRB) assays were performed as described in Example 1 to quantitate living cells.
# [4] = test system: PC3-TxR; assay: SRB cell viability assay, 72 h wilforlide A dose-response; format: cell-based, human; conditions: for A at 565 nm: background = 0.044
# Description: The determination of the wilforlide A IC50. The IC50 for wilforlide A was determined in vitro for the purpose of identifying wilforlide A concentrations that could be used for determining its chemosensitizing effect (CE) in cell cultures of the docetaxel-resistant prostate cancer line PC3-TxR (Obtained from Prof. Evan T. Keller, University of Michigan).
# Post-recovery, the plating media was aspirated from the cell cultures, and replaced with 50 μl per well of RPMI containing a designated concentration of wilforlide A. Then, the cells were incubated in the presence of the wilforlide A media for 72 hours. The 50 μl wilforlide A aliquots were prepared by making 1:3 serial dilutions of a wilforlide A stock solution (0.5 mg/ml in DMSO) to with concentrations ranging from 1×10^2 to 1×10^−3 μg/ml.
# [5] = test system: DU145-TxR; assay: SRB cell viability assay, docetaxel with/without wilforlide A pretreatment; format: cell-based; conditions: DU145-TxR (docetaxel-resistant); 2.5 μg/ml pretreatment
# Description: FIG. 4 summarizes the data of Tables 18 and 19 in a graphical format.
# [6] = test system: SkBr3-TxR; assay: SRB cell viability assay, lapatinib with/without wilforlide A pretreatment; format: cell-based; conditions: SkBr3-TxR (lapatinib-resistant); 2.5 μg/ml pretreatment
# [7] = Water solubility of wilforlide A; format: physicochemical
# [8] = test system: PC3-TxR cell tumors; assay: In vivo tumor xenograft study, chemosensitizing effect with docetaxel; set-up: species or system SCID mice
# Description: To perform this study, tumors were caused to form in fifty six severe four to six week-old, severe combined immunodeficient (SCID) male mice (Taconic Farms, Inc. Oxnard, Calif.) that weighed from 15 to 20 g were obtained and housed in cages with HEPA-filtered air (12-hr light/dark cycle) by subcutaneously injecting PC3-TxR cells in the mice. To prepare the cells for injection, the cells were suspended in a 1:1 mixture of Matrigel (BC Biosciences, Franklin Lakes, N.J., U.S.A.) and RPMI 1640 (Mediatech, Manassas, Va., or Life Technologies, Grand Island, N.Y.). Then the cells were subcutaneously implanted into planks of mice via injection. Mice that had consistently shown tumor growth for fourteen days following the injection of cells were used in the tumor studies. More specifically, these studies were initiated when the xenografted tumors reached a tumor size of about 120 mm^3, calculated by the formula for a semiepplipoid, i.e., Volume=Width2×(Length/2).
# [9] = test system: K562/Dox; assay: SRB cell viability assay, daunorubicin with/without wilforlide A pretreatment; format: cell-based; conditions: K562/Dox (daunorubicin-resistant); 2.5 μg/ml pretreatment
# Description: Wilforlide A sensitizes the daunorubicin-resistant myelogenous leukemia line K562/Dox, to daunorubicin. […] FIG. 5 summarizes the data of Tables 20 and 21 in a graphical format.
# [10] = test system: PC3-TxR; assay: SRB cell viability assay, docetaxel with/without wilforlide A pretreatment; format: cell-based, human; conditions: PC3-TxR (docetaxel-resistant); 0.6-5.0 μg/ml pretreatment
# [11] = Maximum tolerated dose study, single and multiple dose (sdMTD, mdMTD); format: in vivo; conditions: single and multiple (daily, 7 days) dose, CD-1 mice
# Description: Maximum tolerated dose (MTD)s of wilforlide A were determined for single MTD (sdMTD) and multiple dose MTD (mdMTD) protocols. […] A seven day-long sdMTD study was performed in which the single dose was administered on day one. A seven day-long mdMTD study was also performed in which wilforlide was administered daily.
# as §1
# For each dose regimen tested, 12 CD-1 mice (6 males and 6 females) received appropriate volume of each wilforlide A preparation. The mice were housed with food and water ad libitum. All mice were monitored for the four hour period that immediately followed wilforlide A administration for indications of acute toxicity, as well as monitored at least 3 times daily for one week for indications of delayed toxicity. The mice were also weighed 24 hours post treatment as well as every other day during the week-long study.
structure (smiles),measurement,setting,value
"CC1(C)[C@@H](O)CC[C@]2(C)[C@H]3CC=C4[C@@H]5C[C@@]6(C)C[C@H](OC6=O)[C@]5(C)CC[C@@]4(C)[C@]3(C)CC[C@@H]12 [wilforlide A, 3-epiabruslactone A]",Cmax,[1]; i.p. 6 mg/kg,750 ng/mL
same,Cmax,[1]; p.o. 30 mg/kg,30 ng/mL
same,T1/2,[1]; i.p. 6 mg/kg,41.0 min
same,T1/2,[1]; i.v. […],11.2 min
same,T1/2,[1]; p.o. 30 mg/kg,25.6 min
same,chemosensitizing effect to lapatinib,[2],sensitizes
same,chemosensitizing effect to docetaxel,[3],does not significantly enhance the sensitivity
same,% viable,[4]; wilforlide A 0.001 μg/ml 72 h,100.0%
same,mean A,[4]; wilforlide A 0.001 μg/ml 72 h,2.618
same,A at 565 nm,[4]; wilforlide A 0.001 μg/ml 72 h,2.599 and 2.624 and 2.607 and 2.635 and 2.593 and 2.646
same,% viable,[4]; wilforlide A 0.1 μg/ml 72 h,99.6%
same,mean A,[4]; wilforlide A 0.1 μg/ml 72 h,2.606
same,A at 565 nm,[4]; wilforlide A 0.1 μg/ml 72 h,2.611 and 2.592 and 2.610 and 2.617 and 2.615
same,% viable,[4]; wilforlide A 0.333 μg/ml 72 h,100.9%
same,mean A,[4]; wilforlide A 0.333 μg/ml 72 h,2.642
same,A at 565 nm,[4]; wilforlide A 0.333 μg/ml 72 h,2.645 and 2.618 and 2.661 and 2.646 and 2.664 and 2.617
same,% viable,[4]; wilforlide A 1 μg/ml 72 h,101.5%
same,mean A,[4]; wilforlide A 1 μg/ml 72 h,2.657
same,A at 565 nm,[4]; wilforlide A 1 μg/ml 72 h,2.626 and 2.629 and 2.755 and 2.658 and 2.659 and 2.616
same,% viable,[4]; wilforlide A 3.33 μg/ml 72 h,77.7%
same,mean A,[4]; wilforlide A 3.33 μg/ml 72 h,2.033
same,A at 565 nm,[4]; wilforlide A 3.33 μg/ml 72 h,2.082 and 1.928 and 2.081 and 1.950 and 2.070 and 2.088
same,% viable,[4]; wilforlide A 10 μg/ml 72 h,13.4%
same,mean A,[4]; wilforlide A 10 μg/ml 72 h,0.351
same,A at 565 nm,[4]; wilforlide A 10 μg/ml 72 h,0.399 and 0.358 and 0.348 and 0.325 and 0.320 and 0.357
same,% viable,[4]; wilforlide A 33.3 μg/ml 72 h,2.9%
same,mean A,[4]; wilforlide A 33.3 μg/ml 72 h,0.076
same,A at 565 nm,[4]; wilforlide A 33.3 μg/ml 72 h,0.096 and 0.072 and 0.074 and 0.073 and 0.069
same,% viable,[4]; wilforlide A 100 μg/ml 72 h,1.0%
same,mean A,[4]; wilforlide A 100 μg/ml 72 h,0.025
same,A at 565 nm,[4]; wilforlide A 100 μg/ml 72 h,0.023 and 0.024 and 0.033 and 0.027 and 0.018
same,chemosensitizing effect to docetaxel,[5],sensitizes
same,chemosensitizing effect to lapatinib,[6],sensitizes
same,water solubility,[7],poorly water soluble
same,tumor growth,"[8]; Group 3: docetaxel 20 mg/kg i.v. weekly + wilforlide A […] i.v. weekly + 6 mg/kg i.p. daily, vs other groups",significant retardation of tumor growth
same,tumor growth,"[8]; wilforlide A alone (Groups 6, 7)",did not significantly inhibit the tumor growth
same,effect on docetaxel's anti-tumor effect,[8]; wilforlide A with docetaxel 20 mg/kg i.v.,significantly enhanced docetaxel's anti-tumor effect
same,chemosensitizing effect to daunorubicin,[9],sensitizes
same,chemosensitizing effect to docetaxel,[10],sensitizes
same,tolerability in MTD study,[11]; 6 mg/kg i.p.,well tolerant
same,tolerability in MTD study,[11]; 30 mg/kg p.o.,well tolerant
same,tolerability in MTD study,[11]; […] i.v.,well tolerant
